The values that follow come from PMC3017119, “Structural Basis for the Recognition of Cellular mRNA Export Factor REF by Herpes Viral Proteins HSV-1 ICP27 and HVS ORF57” (PLoS Pathogens, 2011).

Where no end group is shown, it is not given here.

The test system of one assay is REF^156–218 (REF2-I C-terminal domain). The assay is described as follows: NMR 1H-15N correlation spectra of 15N-labelled REF^156–218 with added viral protein constructs. The note with it: 2-fold excess of viral construct; 15N-HSQC. The assay is classed as binding, murine.
Take “…SCKTSWADRVREAAAQRR [HVS ORF57^8–120, recombinant fragment aa 8–120 of Herpesvirus saimiri ORF57, with T7 and poly-His tags]”: the “Changes in 1H-15N correlation spectra of 15N-REF^156–218 upon addition” value is reported as “No significant changes”.

The next assay deals with T1, REF^54–155 (REF2-I RRM domain) (Mus musculus, UniProt Q9JJW6).
T1 construct: made in house
The assay is described as follows: NMR chemical shift titration of 15N-REF^54–155 with viral peptides (dissociation constants). It counts as binding, murine.
Settings: not given
On the procedure: A separate titration of each peptide was carried out under the same sample conditions. Increasing amounts of peptide were added to a ^15N-REF^54–155 sample, achieving binding saturation whenever possible. Throughout these titrations amide chemical shift changes were monitored to assess the relative binding affinity of these peptides for REF and simultaneously map their binding sites. Estimates of dissociation constants were obtained for each peptide, and for the longer viral adaptor fragments (Table 2). […] A reduction in affinity was more pronounced in the L108A mutant, with the R107A mutation virtually abolishing the binding. […] This agrees with the NMR mapping data that a longer sequence from ORF57 (residues 103–120) is involved in REF binding. […] These latter two viral adaptors lack the signature Trp residue, and additionally in KSHV-ORF57 the Arg within the triad is replaced by Lys. As a further control, we also checked if binding of the viral peptides is specific to the RRM domain of REF, or if it can occur with RRMs of other proteins as well. The proteins SF2 [37] and 9G8 [38] bind TAP/p15 and have roles in splicing and mRNA export somewhat similar to that of REF/Aly. They also contain an RRM domain and are therefore structurally homologous to REF/Aly. To test if the same ICP27 motif could interact with these RRM domains, we added a 5-fold excess of WT ICP27^103–112 peptide to ^15N-labelled SF2 [37] and 9G8 [38]. […] These experiments confirmed that the recognition of the REF RRM domain by viral adaptor proteins is highly specific, and the isolated peptides ICP27^103–112, ICP27^103–110 and ORF57^103–120 are able to bind REF as efficiently as longer fragments of these viral proteins.
All experiments were carried out at 30°C on Bruker DRX600, DRX700 and Varian Inova 800 MHz spectrometers equipped with cryoprobes. The weighted chemical shift changes of amide signals δCS caused by complex formation were measured as [drawing 1] , where Δδ^H and Δδ^N were changes in proton and nitrogen chemical shifts, respectively. Standard triple-resonance experiments were used to assign spectra of ICP27^103–138, ORF57^8–120 and REF^54–155 in their free and bound states. Additionally, carbon-detection experiments (CON, CaCO, CbCaCO, CbCaCO(N), CbCaNCO) were used as an aid to the ORF57 assignment. Spectra were processed using NMRpipe and Topspin 2.1 (Bruker) and analysed using Sparky (University of California). Distance restraints obtained from 3D ^15N- and ^13C edited NOESY-HSQC experiments (τm 120 ms) and dihedral restraints from TALOS [51] were used in structure calculations by CYANA [52]. Additionally, intermolecular contacts were unambiguously identified using ^13C edited, ^12C-filtered NOESY-HSQC (τm 150 ms) spectra acquired on Varian Inova 800 MHz spectrometer. In this experiment only NOE crosspeaks between ^1H-^13C moieties of ^13C,^15N-labelled REF and ^1H(^12C) of unlabelled ICP27 peptide were observed, [54]. A final ensemble contained 20 structures with lowest target function values. Images were generated using Pymol (DeLano Scientific). For the REF - ICP27 complex, structure coordinates and experimental constraints have been deposited into the Protein Data Bank and chemical shifts in the BioMagResBank (access numbers 2kt5 and bmr16683 respectively). Other chemical shift assignments deposited in the BioMagResBank are: free ICP27^103–138 bmr16696, free REF^54–155 bmr16697, and ORF57^8–120 bmr16698 (both free and bound to REF^54–155).
Unlabelled synthetic peptides were obtained from Peptide Protein Research Ltd (UK). The synthetic peptide sequences used were from Varicella-zoster virus ORF4^108–119 (AAY57694), Kaposi's sarcoma-associated herpesvirus ORF57^100–110 (YP_001129410), Herpesvirus Saimiri ORF57^103–120 & 105–115 (CAC84353), Herpes simplex virus 1 ICP27^103–110 & 103–112 (AAF43147). […]
Turning to KTSWADRVREA [HVS ORF57^105–115], the Kd was > 1000 µM.

With “NRYGKKIKFGT [KSHV ORF57^100–110, reference compound]”, the Kd is > 100000 µM.

In the case of “SCKTSAADRVREAAAQRR [HVS ORF57^103–120 W108A]”, the Kd was > 7500 µM.

In the case of “SCKTSWADAVREAAAQRR [HVS ORF57^103–120 R111A]”, the Kd was found to be 254 ± 50 µM.

In the case of “SCKTSWADRAREAAAQRR [HVS ORF57^103–120 V112A]”, the Kd is 156 ± 32 µM.

SVASRLGARR [ICP27^103–112 W105A]: the Kd is 550 ± 210 µM.

As to SVWSALGARR [ICP27^103–112 R107A], the Kd was > 10000 µM.

As for SVWSRAGARR [ICP27^103–112 L108A], the Kd was > 5000 µM.

In the case of TGYARIERGHRR [VZV ORF4^108–119], the Kd was > 1000 µM.

Still in this assay, the particulars now being: chemical shift changes in 1H-15N correlation spectra of 100 µM 15N-REF^54–155 versus increasing peptide concentration, fitted to standard equation; 30°C; NMR buffer 20 mM phosphate, 50 mM NaCl, 50 mM L-Arg/L-Glu/β-mercaptoethanol, 10 mM EDTA, pH 6.2; read-out: K D.
“…SCKTSWADRVREAAAQRR [HVS ORF57^8–120, recombinant fragment aa 8–120 of Herpesvirus saimiri ORF57, with T7 and poly-His tags]”: the Kd is 78 ± 12 µM.

The next assay deals with GST-REF2-I. The assay is described as follows: GST-REF2-I pull down of 35S-radiolabelled ICP27 fragments. The assay is classed as binding, murine. The following applies: 35S-radiolabelled protein from rabbit reticulocytes, glutathione beads, RB100 buffer pH 7.5, 10 µg/ml RNAse A; SDS-PAGE, PhosphoImage. The text has this:
To confirm the position of REF-binding domains within ICP27 and ORF57 and to minimise the size of constructs for more detailed NMR mapping, a series of fragments derived from HSV-1 ICP27 were screened for binding to GST-REF2-I using pull down assays (Fig. 1). […] The REF-binding fragment of ORF57 aa 8–120 identified previously similarly interacted with the same fragments of REF (Fig. 1D).
Figure 1 Identification of regions for the interactions between REF and ICP27/ORF57. (A) Subdivision of ICP27, ORF57 and REF2-I in fragments. […] (C) Fusion of the ICP27^103–138 peptide to GST allows a specific pull down of REF, REF^1–155 (NM) and REF^54–155 (Δ53) and a very weak pull down of the REF^1–70 (N); no interaction is detected with the control Ras protein. (D) Same pull down assay as panel C but using GST fusion of ORF57 aa 8–120 in place of ICP27.
GST or GST protein fusions were first immobilised on 30 µl slurry glutathione-coated beads (GE Healthcare) before 8 µl ^35S-radiolabelled proteins synthesised in rabbit reticulocytes (Promega) were added to the binding reactions in RB100 buffer (25 mM HEPES pH 7.5/100 mM KOAc/10 mM MgCl2/1 mM DTT/0.05% Triton X-100/10% glycerol) in presence of 10 µg/ml RNAse A. Washed and eluted protein complexes were resolved on 15% SDS-PAGE stained with Coomassie blue and analysed by PhosphoImage. […]
Consider “ICP27^1–103: fragment aa 1–103 of HSV-1 ICP27”, for which the “Binding to GST-REF2-I in pull down” value is listed as “no binding”.

“ICP27^139–512: fragment aa 139–512 of HSV-1 ICP27”: the “Binding to GST-REF2-I in pull down” value was “no binding”.
